{"source": "patent US4985558A", "about": "“1,4-dihydropyridine derivative” (Nikken Chemicals Co., Ltd., priority 1988, dated 1991)", "key": {"[1]": {"tested_on": "rat rectum smooth muscle", "assay": "Inhibitory effects on potassium contracture in rat rectum smooth muscle", "assay_type": "cell-based", "settings": "5 min, K contraction 5.6 to 56.0 mM, read-out: Inhibition ratio; for inhibition at 0.1 µM: 10^-7 M; for inhibition at 0.01 µM: 10^-8 M", "protocol": "Rat rectum (about 1.5 cm) was isolated and suspended in a Magnus tube. A Locke solution was employed as the nutrient solution, and a contraction of the intestinum rectum was caused by changing the potassium (K) concentration of this solution from 5.6 mmol (mM) to 56.0 mM. This contraction was a contraction through a membrane dependent Ca-channel mediated contraction based on depolarization by a K concentration change. The contraction was recorded by an FD-transducer and polygraph. The compounds of the present invention were permitted to act 5 minutes before changing the K concentration, and simultaneously with changing the K concentration. […] A judgement was made 5 minutes after changing the K concentration, and the difference in contraction before the concentration change was indicated as an inhibition % value. Verapamil and nicardipine were employed as the positive control compound ."}, "[2]": {"tested_on": "vincristine (VCR)-resistant mouse leukemia (P388/VCR) cells", "assay": "Antitumor agent potentiating effect in vincristine-resistant tumor bearing mouse (Example 11, i.p. 5 days)", "assay_type": "in vivo", "protocol": "(§1) The potentiating effect of the antitumor agent (T/V) % was determined according to the formula shown below. Verapamil was employed as the positive Control compound. […] In the Tables, Compound 1 is the compound obtained in Example 1, Compound 2 that obtained in Example 2, Compound 3 that obtained in Example 3, Compound 4 that obtained in Example 4, and Compound 5 that obtained in Example 5. [formula]"}, "[3]": {"tested_on": "vincristine (VCR)-resistant mouse leukemia (P388/VCR) cells", "assay": "Antitumor agent potentiating effect in vincristine-resistant tumor bearing mouse (Example 12, i.p.)", "assay_type": "in vivo", "protocol": "as §1\nThe potentiating effect of the antitumor agent (T/V) % was determined as described above (Example 11). Nicardipine was employed as the positive Control compound, and was administered intraperitoneally for 10 days. […] In the Tables, Compound 6 is the compound obtained in Example 6, Compound 7 that obtained in Example 7, and Compound 8 that obtained in Example 8."}, "[4]": {"tested_on": "spontaneously hypertensive rats (SHR)", "settings": "rat, in vivo, ip", "procedure": "The systolic blood pressure was measured by using spontaneously hypertensive rats (SHR), which are a model of hypertension when examine the hypotensive activities of the compounds of the present invention and the positive Control compound. The rats were warmed for 5 minutes in a warming box at 55° C., and their blood pressure then measured by a tail cuff plethysmograph. The compounds of the present invention were administered singly and intraperitoneally at a dose of 100 mg/kg and the positive Control compound was administered singly and intraperitoneally at a dose of 10 mg/kg. […] Blood pressure measurements were taken before administration and 60 minutes after administration. Nicardipine was employed as the positive Control compound."}, "[5]": {"tested_on": "vincristine (VCR)-resistant mouse leukemia (P388/VCR) cells", "assay": "Antitumor agent potentiating effect in vincristine-resistant tumor bearing mouse (Example 13, oral compound, 10 days)", "assay_type": "in vivo", "procedure": "The antitumor agent potentiating effect (T/V) % was determined as described above."}, "[6]": {"settings": "compound 100 mg/kg i.p. + VCR 30 μg/kg i.p."}, "[7]": {"settings": "compound alone 100 mg/kg i.p., no VCR"}, "[8]": {"settings": "compound 50 mg/kg/day oral + VCR 100 μg/kg/day i.p."}, "[9]": {"settings": "compound 100 mg/kg/day oral + VCR 10 μg/kg/day i.p."}, "[10]": {"settings": "compound 100 mg/kg/day oral + VCR 30 μg/kg/day i.p."}, "[11]": {"settings": "compound 100 mg/kg/day oral + VCR 100 μg/kg/day i.p."}, "[12]": {"settings": "compound 200 mg/kg/day oral + VCR 10 μg/kg/day i.p."}, "[13]": {"settings": "compound 200 mg/kg/day oral + VCR 30 μg/kg/day i.p."}, "[14]": {"settings": "compound 200 mg/kg/day oral + VCR 100 μg/kg/day i.p."}, "[15]": {"settings": "compound 300 mg/kg/day oral + VCR 10 μg/kg/day i.p."}, "[16]": {"settings": "compound 300 mg/kg/day oral + VCR 30 μg/kg/day i.p."}, "[17]": {"settings": "positive control 50 mg/kg i.p., 10 days + VCR 30 μg/kg"}, "[18]": {"settings": "positive control 75 mg/kg i.p., 10 days + VCR 30 μg/kg"}, "[19]": {"settings": "positive control alone 50 mg/kg i.p., 10 days"}, "[20]": {"settings": "positive control alone 75 mg/kg i.p., 10 days"}, "[21]": {"settings": "positive control 30 mg/kg + VCR 30 μg/kg"}, "[22]": {"settings": "positive control 60 mg/kg + VCR 30 μg/kg"}}, "note": "Read-outs that look alike come from different tables or passages of the source."}
{"compound": "CC1=C(C(=O)OCCc2ccccn2)C(C2=COCCO2)C(C(=O)OCCc2ccccn2)=C(C)N1", "note": "[Compound 4, bis[2-(2-pyridyl)ethyl]4-[2-(5,6-dihydro-p-dioxinyl)]-2,6-dimethyl-1,4-dihydropyridine-3,5-dicarboxylate]", "values": [{"measurement": "inhibition at 0.1 µM", "setting": "[1]", "result": 5.2, "unit": "%"}, {"measurement": "inhibition at 0.01 µM", "setting": "[1]", "result": -6.9, "unit": "%"}, {"measurement": "Potentiating effect T/V", "setting": "[2]; [6]", "result": 121, "unit": "%"}, {"measurement": "Survival Days (Mean ± SD)", "setting": "[2]; [6]", "result": "13.7 ± 1.6", "unit": "days"}, {"measurement": "Survival ratio T/C", "setting": "[2]; [6]", "result": 126, "unit": "%"}]}
{"compound": "CC1=C(C(=O)OCc2cccnc2)C(C2=CSCCS2)C(C(=O)OCc2cccnc2)=C(C)N1", "note": "[Compound 7, bis(3-pyridylmethyl) 4-[2-(5,6-dihydro-1,4-dithiinyl)]-2,6-dimethyl-1,4-dihydropyridine-3,5-dicarboxylate]", "values": [{"measurement": "Potentiating effect T/V", "setting": "[3]; [6]", "result": 118, "unit": "%"}, {"measurement": "Survival Days (Mean ± SD)", "setting": "[3]; [6]", "result": "13.5 ± 0.8", "unit": "days"}, {"measurement": "Survival ratio T/C", "setting": "[3]; [6]", "result": 131, "unit": "%"}, {"measurement": "Survival Days (Mean ± SD)", "setting": "[3]; [7]", "result": "11.0 ± 0.6", "unit": "days"}, {"measurement": "Survival ratio T/C", "setting": "[3]; [7]", "result": 107, "unit": "%"}, {"measurement": "Blood pressure change", "setting": "[4]; 100 mg/kg", "result": -38, "unit": "mmHg"}, {"measurement": "Systolic Blood Pressure 60 minutes after administration", "setting": "[4]; 100 mg/kg", "result": 189, "unit": "mmHg"}]}
{"compound": "CC1=C(C(=O)OCc2ccncc2)C(C2=C(C)SCCS2)C(C(=O)OCc2ccncc2)=C(C)N1", "note": "[Compound 8, bis(4-pyridylmethyl) 4-[2-(3-methyl-5,6-dihydro-1,4-dithiinyl)-]2,6-dimethyl-1,-4-dihydropyridine-3,5-dicarboxylate]", "values": [{"measurement": "Potentiating effect T/V", "setting": "[3]; [6]", "result": 138, "unit": "%"}, {"measurement": "Survival Days (Mean ± SD)", "setting": "[3]; [6]", "result": "13.5 ± 0.8", "unit": "days"}, {"measurement": "Survival ratio T/C", "setting": "[3]; [6]", "result": 138, "unit": "%"}, {"measurement": "Survival Days (Mean ± SD)", "setting": "[3]; [7]", "result": "9.7 ± 1.0", "unit": "days"}, {"measurement": "Survival ratio T/C", "setting": "[3]; [7]", "result": 99, "unit": "%"}, {"measurement": "Blood pressure change", "setting": "[4]; 100 mg/kg", "result": -11, "unit": "mmHg"}, {"measurement": "Systolic Blood Pressure 60 minutes after administration", "setting": "[4]; 100 mg/kg", "result": 187, "unit": "mmHg"}, {"measurement": "life prolonging effect compared with VCR alone in P388/S", "setting": "[5]; combination with VCR, P388/VCR, Table 8", "result": "has an effect comparable to the prolonging effect when VCR is administered alone to P388/S which is a vincristine-sensitive clone (Table 8), thus completely overcoming the VCR resistance"}, {"measurement": "Potentiating effect T/V", "setting": "[5]; [8]", "result": 120, "unit": "%"}, {"measurement": "Survival Days (Mean ± SD)", "setting": "[5]; [8]", "result": "12.5 ± 1.6", "unit": "days"}, {"measurement": "Survival ratio T/C", "setting": "[5]; [8]", "result": 132, "unit": "%"}, {"measurement": "Potentiating effect T/V", "setting": "[5]; [9]", "result": 120, "unit": "%"}, {"measurement": "Survival Days (Mean ± SD)", "setting": "[5]; [9]", "result": "11.3 ± 0.8", "unit": "days"}, {"measurement": "Survival ratio T/C", "setting": "[5]; [9]", "result": 119, "unit": "%"}, {"measurement": "Potentiating effect T/V", "setting": "[5]; [10]", "result": 118, "unit": "%"}, {"measurement": "Survival Days (Mean ± SD)", "setting": "[5]; [10]", "result": "12.2 ± 1.2", "unit": "days"}, {"measurement": "Survival ratio T/C", "setting": "[5]; [10]", "result": 128, "unit": "%"}, {"measurement": "Potentiating effect T/V", "setting": "[5]; [11]", "result": 130, "unit": "%"}, {"measurement": "Survival Days (Mean ± SD)", "setting": "[5]; [11]", "result": "13.5 ± 1.4", "unit": "days"}, {"measurement": "Survival ratio T/C", "setting": "[5]; [11]", "result": 142, "unit": "%"}, {"measurement": "Potentiating effect T/V", "setting": "[5]; [12]", "result": 131, "unit": "%"}, {"measurement": "Survival Days (Mean ± SD)", "setting": "[5]; [12]", "result": "12.3 ± 0.5", "unit": "days"}, {"measurement": "Survival ratio T/C", "setting": "[5]; [12]", "result": 129, "unit": "%"}, {"measurement": "Potentiating effect T/V", "setting": "[5]; [13]", "result": 139, "unit": "%"}, {"measurement": "Survival Days (Mean ± SD)", "setting": "[5]; [13]", "result": "14.3 ± 1.0", "unit": "days"}, {"measurement": "Survival ratio T/C", "setting": "[5]; [13]", "result": 151, "unit": "%"}, {"measurement": "Potentiating effect T/V", "setting": "[5]; [14]", "result": 156, "unit": "%"}, {"measurement": "Survival Days (Mean ± SD)", "setting": "[5]; [14]", "result": "16.2 ± 2.4", "unit": "days"}, {"measurement": "Survival ratio T/C", "setting": "[5]; [14]", "result": 171, "unit": "%"}, {"measurement": "Potentiating effect T/V", "setting": "[5]; [15]", "result": 144, "unit": "%"}, {"measurement": "Survival Days (Mean ± SD)", "setting": "[5]; [15]", "result": "13.5 ± 0.5", "unit": "days"}, {"measurement": "Survival ratio T/C", "setting": "[5]; [15]", "result": 142, "unit": "%"}, {"measurement": "Potentiating effect T/V", "setting": "[5]; [16]", "result": 149, "unit": "%"}, {"measurement": "Survival Days (Mean ± SD)", "setting": "[5]; [16]", "result": "15.3 ± 1.5", "unit": "days"}, {"measurement": "Survival ratio T/C", "setting": "[5]; [16]", "result": 161, "unit": "%"}]}
{"compound": "COC(=O)C1=C(C)NC(C)=C(C(=O)OCCN(C)Cc2ccccc2)C1c1cccc([N+](=O)[O-])c1", "note": "(centres unmarked) [Nicardipine, reference compound]", "values": [{"measurement": "Potentiating effect T/V", "setting": "[3]; [17]", "result": 112, "unit": "%"}, {"measurement": "Survival Days (Mean ± SD)", "setting": "[3]; [17]", "result": "12.3 ± 0.8", "unit": "days"}, {"measurement": "Survival ratio T/C", "setting": "[3]; [17]", "result": 128, "unit": "%"}, {"measurement": "Potentiating effect T/V", "setting": "[3]; [18]", "result": 125, "unit": "%"}, {"measurement": "Survival Days (Mean ± SD)", "setting": "[3]; [18]", "result": "13.7 ± 1.2", "unit": "days"}, {"measurement": "Survival ratio T/C", "setting": "[3]; [18]", "result": 143, "unit": "%"}, {"measurement": "Survival Days (Mean ± SD)", "setting": "[3]; [19]", "result": "10.6 ± 1.5", "unit": "days"}, {"measurement": "Survival ratio T/C", "setting": "[3]; [19]", "result": 110, "unit": "%"}, {"measurement": "Survival Days (Mean ± SD)", "setting": "[3]; [20]", "result": "11.2 ± 1.1", "unit": "days"}, {"measurement": "Survival ratio T/C", "setting": "[3]; [20]", "result": 117, "unit": "%"}, {"measurement": "inhibition at 0.01 µM", "setting": "[1]", "result": 73.1, "unit": "%"}, {"measurement": "Blood pressure change", "setting": "[4]; 10 mg/kg", "result": -122, "unit": "mmHg"}, {"measurement": "Systolic Blood Pressure 60 minutes after administration", "setting": "[4]; 10 mg/kg", "result": 86, "unit": "mmHg"}]}
{"compound": "COc1ccc(CCN(C)CCCC(C#N)(c2ccc(OC)c(OC)c2)C(C)C)cc1OC", "note": "(centres unmarked) [Verapamil, reference compound]", "values": [{"measurement": "inhibition at 0.1 µM", "setting": "[1]", "result": 50.2, "unit": "%"}, {"measurement": "inhibition at 0.01 µM", "setting": "[1]", "result": 13.6, "unit": "%"}, {"measurement": "Potentiating effect T/V", "setting": "[2]; [21]", "result": 121, "unit": "%"}, {"measurement": "Survival Days (Mean ± SD)", "setting": "[2]; [21]", "result": "14.3 ± 1.6", "unit": "days"}, {"measurement": "Survival ratio T/C", "setting": "[2]; [21]", "result": 134, "unit": "%"}, {"measurement": "Potentiating effect T/V", "setting": "[2]; [22]", "result": 130, "unit": "%"}, {"measurement": "Survival Days (Mean ± SD)", "setting": "[2]; [22]", "result": "15.3 ± 0.5", "unit": "days"}, {"measurement": "Survival ratio T/C", "setting": "[2]; [22]", "result": 143, "unit": "%"}]}
